In series [1] the test system is SKOV-3 cells expressing EGFP-α-tubulin. The experiment in a line: Mitotic arrest of synchronized EGFP-α-tubulin-expressing SKOV-3 cells, time-lapse single-cell analysis. The series is classed as cell-based. As to conditions: for EC50: Homo sapiens, SK-OV-3, 72 h, mitotic arrest, EC50=50% arrest rate, double thymidine block, time-lapse 3 days, at least 50 cells, read-out: SKOV3 EC50; for Remarks: start of mitosis: At 66.7 μg/ml; for Remarks: cytotoxic: Table 2 remark; for inhibitory effects on cell growth: summary of Table 2 (SKOV-3 mitotic arrest and lymphoma cell death). On the procedure:
The EGFP-α-tubulin-expressing cells used in the assay will be described. In order to observe mitosis under a fluorescence microscope, cells expressing EGFP-α-tubulin (fusion protein of a fluorescent protein, EGFP, and α-tubulin) were prepared. A system observable under a fluorescence microscope without cell fixation was prepared.
Ovary cancer cells SKOV-3 were cultured in an RPMI1640 medium supplemented with 5% fetal bovine serum. Stable cells expressing EGFP-α-tubulin were transduced by lentiviral transduction using pLenti4/V5-DEST vectors (Registered Trade Mark) (manufactured by Invitrogen Corp.) and selected by the FACS sorting of infected cells using Zeocin (Registered Trade Mark) and subsequent FACSAria (Registered Trade Mark) (Becton, Dickinson and Company).
The compounds NPD2448, NPD2568, NPD3574, NPD4089, and C7—O-propylated NPD3574 were each added at varying concentrations to the culture medium of SKOV-3 cells expressing EGFP-α-tubulin and analyzed for their effect on cell division.
The SKOV-3 cells expressing EGFP-α-tubulin were synchronized by thymidine block to analyze the effect on cell division of each compound. As shown in the upper part of FIG. 2, each compound was added to the culture medium after the 1st thymidine block. After synchronization by the second thymidine block, images were taken every 2 minutes for 3 days using Leica AF6000 and ×20/0.5 Plan Fluotar objective lens in a phenol red-free RPMI1640 medium supplemented with 5% fetal bovine serum. These time-lapse images were analyzed using ImageJ 1.42a software, and the time of mitotic arrest was determined by visual judgment. The duration of mitosis was manually determined from the image sequences of at least 50 cells.
The mitotic arrest (EC50=50% arrest rate) was tested by the microscopic analysis of individual single cells.
EGFP-α-tubulin-expressing SKOV-3 cells synchronized by double thymidine block in the same way as in Example 2 were treated with each synthesized compound and subjected to time-lapse photography for 3 days. At least 50 cells were observed. The time of arrest of each cell was calculated, and EC50 was determined therefrom.
EGFP-α-tubulin-expressing SKOV-3 cells supplemented with each of SPL-A and SPL-B at varying concentrations were synchronized by double thymidine block in the same way as in Example 2. Analysis based on single cells was conducted by time-lapse photography. The duration of mitosis was measured from the image sequences of at least 50 cells.

In the next series the test system is mouse lymphoma cell line. The experiment in a line: Cell death of lymphoma (survival rate, WST-1). The series is classed as cell-based. The note with it: 72 h, IC50=50% survival rate, three days. The protocol: The synthesized compounds were analyzed for their activity against cell death induction using a mouse lymphoma cell line (see Non Patent Literature 12), which was a cell line derived from thymic lymphoma developed in p53KO mouse.
The number of the lymphoma cells was adjusted to 1.2×10^5 cells/ml. The cells were inoculated at a concentration of 50 μl/well to a 96-well culture dish. A medium containing each RT compound as the novel compound of the present invention at twice the concentration of 50 μl was further added thereto (final concentration: 0.021 to 13.3 μg/ml). Three days after cultivation, the survival rate was calculated using WST-1 reagent (manufactured by F. Hoffmann-La Roche, Ltd.).
(In general: Tetrazolium dyes change colour on reduction, which living cells bring about.)

≈ marks a conversion by molar mass, not a printed value. Bounds are passed on as bounds.

The values that follow come from patent publication US20160052918A1, “SMALL COMPOUNDS TARGETING TACC3” (JAPANESE FOUNDATION FOR CANCER RESEARCH, priority 2012, published 2016).

As for `COCCN(CCOC)Cc1c(O)ccc2c(C)cc(=O)oc12` [RT-001], the EC50 (in general, the midpoint of the concentration-response curve) in series [1] was greater than 66.7 mg/L.
For `CC(=O)OCc1c(OC(C)=O)ccc2c(-c3cc4ccccc4oc3=O)cc(=O)oc12` [RT-002], it took 8.3 mg/L (≈ 19.7 µM) to reach half-maximal inhibition with mouse lymphoma cell line (IC50). For the same compound, in series [1], the “Remarks: start of mitosis” value was “μg/ml, mitosis did not”; the EC50 was greater than 13.3 mg/L; the “Remarks: cytotoxic” value is given as “Cytotoxic. At 66.7”; the “inhibitory effects on cell growth” value is “remarkable inhibitory effects on cell growth”.
For the compound `CCN(CC)Cc1c(O)ccc2c(-c3cc4ccccc4oc3=O)cc(=O)oc12` [RT-003], inhibition with mouse lymphoma cell line was half-maximal at 5.08 mg/L (≈ 13 µM) (IC50). Also, in series [1], the EC50 was found to be 0.85 mg/L (≈ 2.17 µM) and the “inhibitory effects on cell growth” value was “remarkable inhibitory effects on cell growth”.
Consider `CN(CCO)Cc1c(O)ccc2c(-c3cc4ccccc4oc3=O)cc(=O)oc12` [RT-004], for which the IC50 – broadly, the concentration at which inhibition is half-maximal – in the series with mouse lymphoma cell line was greater than 13.3 mg/L. In series [1], the EC50 came out at 8.49 mg/L (≈ 21.6 µM) and the “inhibitory effects on cell growth” value is listed as “remarkable inhibitory effects on cell growth”.
In the case of `CN(C)CCNCc1c(O)ccc2c(-c3cc4ccccc4oc3=O)cc(=O)oc12` [RT-005], inhibition in the series with mouse lymphoma cell line was half-maximal at 5.37 mg/L (≈ 13.2 µM) (IC50). In series [1], the “Remarks: start of mitosis” value is “μg/ml, mitosis did not”; the EC50 was greater than 13.3 mg/L; the “Remarks: cytotoxic” value was “Cytotoxic. At 66.7”; the “inhibitory effects on cell growth” value is “remarkable inhibitory effects on cell growth”.
Consider `CCN(CCN(C)C)Cc1c(O)ccc2c(-c3cc4ccccc4oc3=O)cc(=O)oc12` [RT-006], for which the IC50 in the series on mouse lymphoma cell line is 3.3 mg/L (≈ 7.6 µM). Further, in series [1], the 50% effective concentration (EC50) is 1.15 mg/L (≈ 2.65 µM) and the “inhibitory effects on cell growth” value is recorded as “remarkable inhibitory effects on cell growth”.
For `O=c1cc(-c2cc3ccccc3oc2=O)c2ccc(O)c(CN3CCCC3)c2o1` [RT-008] the same measures were 9.77 mg/L (≈ 25.1 µM), 2.67 mg/L (≈ 6.86 µM) and “remarkable inhibitory effects on cell growth”.
Take `O=c1cc(-c2cc3ccccc3oc2=O)c2ccc(O)c(CN3CCCCC3)c2o1` [RT-009]: in the series on mouse lymphoma cell line, inhibition was half-maximal at 10.1 mg/L (≈ 25.1 µM) (IC50). In series [1], the EC50 turned out to be 2.68 mg/L (≈ 6.64 µM) and the “inhibitory effects on cell growth” value is reported as “remarkable inhibitory effects on cell growth”.
`CC1CCN(Cc2c(O)ccc3c(-c4cc5ccccc5oc4=O)cc(=O)oc23)CC1` [RT-010] registered an IC50 with mouse lymphoma cell line of 1.64 mg/L (≈ 3.93 µM). Further, in series [1], the EC50 was determined as 0.94 mg/L (≈ 2.25 µM) and the “inhibitory effects on cell growth” value is on record as “remarkable inhibitory effects on cell growth”.
For `O=c1cc(-c2cc3ccccc3oc2=O)c2ccc(O)c(CN3CCOCC3)c2o1` [RT-012], the midpoint of inhibition in the series on mouse lymphoma cell line, the IC50, lay at 2.05 mg/L (≈ 5.06 µM). Moreover, in series [1], the EC50 turned out to be 1.39 mg/L (≈ 3.43 µM) and the “inhibitory effects on cell growth” value is given as “remarkable inhibitory effects on cell growth”.
`CCCOc1ccc2c(-c3cc4ccccc4oc3=O)cc(=O)oc2c1CN(CCOC)CCOC` [RT-013]: the EC50 in series [1] is greater than 66.7 mg/L.
Regarding `O=c1cc(-c2cc3ccccc3oc2=O)c2ccc(O)c(CN3CCC(N4CCCCC4)CC3)c2o1` [RT-014], the IC50 with mouse lymphoma cell line was 8.25 mg/L (≈ 17 µM). In addition, in series [1], the EC50 amounted to 8.76 mg/L (≈ 18 µM) and the “inhibitory effects on cell growth” value is “remarkable inhibitory effects on cell growth”.
For `O=c1cc(-c2cc3cc(F)ccc3oc2=O)c2ccc(O)c(CN3CCOCC3)c2o1` [RT-019], half-maximal inhibition in the series on mouse lymphoma cell line (IC50) was put at 0.12 mg/L (≈ 0.283 µM). In series [1], the EC50 is 0.16 mg/L (≈ 0.378 µM) and the “inhibitory effects on cell growth” value is reported as “remarkable inhibitory effects on cell growth”.
As for `C=CCOc1ccc2c(-c3cc4ccccc4oc3=O)cc(=O)oc2c1C[N+]([O-])(CCOC)CCOC` [RT-023], in series [1], the EC50 was greater than 66.7 mg/L.
As for `COCCN(CCOC)Cc1c(OCC(O)CO)ccc2c(-c3cc4ccccc4oc3=O)cc(=O)oc12` (centres unmarked) [RT-024], in series [1], the 50% effective concentration (EC50) was greater than 66.7 mg/L.
On the same count and under the same terms, in the case of `COCC[N+]([O-])(CCOC)Cc1c(OCC=C(C)C)ccc2c(-c3cc4ccccc4oc3=O)cc(=O)oc12` [RT-025] it was greater than 66.7 mg/L.
For `COCCN(CCOC)Cc1c(OCC(O)C(C)(C)O)ccc2c(-c3cc4ccccc4oc3=O)cc(=O)oc12` (centres unmarked) [RT-026], in series [1], the EC50 was greater than 66.7 mg/L.
On the same count and under the same terms, as for `O=c1cc(-c2cc3ccccc3oc2=O)c2ccc(O)cc2o1` [RT-030], the figure is greater than 66.7 mg/L.
